Data from patent publication US20240116985A1, “STAPLED PEPTIDES AND METHODS THEREOF” (priority 2020, published 2024).
In brackets after ≈: the same amount, converted by molar mass. Like-named read-outs stand apart in the source and are kept apart here.

Assays:
[1] = target: T1, full-length beta-Catenin (Uniprot ID P35222) (Homo sapiens, UniProt P35222); assay: Fluorescence polarization IC50 (beta-catenin / 5FAM-TCF4 10-53 competition); assay type: binding
T1 construct: 10 nM full-length beta-Catenin (Uniprot ID P35222)
T1 sequence (P35222 1-781): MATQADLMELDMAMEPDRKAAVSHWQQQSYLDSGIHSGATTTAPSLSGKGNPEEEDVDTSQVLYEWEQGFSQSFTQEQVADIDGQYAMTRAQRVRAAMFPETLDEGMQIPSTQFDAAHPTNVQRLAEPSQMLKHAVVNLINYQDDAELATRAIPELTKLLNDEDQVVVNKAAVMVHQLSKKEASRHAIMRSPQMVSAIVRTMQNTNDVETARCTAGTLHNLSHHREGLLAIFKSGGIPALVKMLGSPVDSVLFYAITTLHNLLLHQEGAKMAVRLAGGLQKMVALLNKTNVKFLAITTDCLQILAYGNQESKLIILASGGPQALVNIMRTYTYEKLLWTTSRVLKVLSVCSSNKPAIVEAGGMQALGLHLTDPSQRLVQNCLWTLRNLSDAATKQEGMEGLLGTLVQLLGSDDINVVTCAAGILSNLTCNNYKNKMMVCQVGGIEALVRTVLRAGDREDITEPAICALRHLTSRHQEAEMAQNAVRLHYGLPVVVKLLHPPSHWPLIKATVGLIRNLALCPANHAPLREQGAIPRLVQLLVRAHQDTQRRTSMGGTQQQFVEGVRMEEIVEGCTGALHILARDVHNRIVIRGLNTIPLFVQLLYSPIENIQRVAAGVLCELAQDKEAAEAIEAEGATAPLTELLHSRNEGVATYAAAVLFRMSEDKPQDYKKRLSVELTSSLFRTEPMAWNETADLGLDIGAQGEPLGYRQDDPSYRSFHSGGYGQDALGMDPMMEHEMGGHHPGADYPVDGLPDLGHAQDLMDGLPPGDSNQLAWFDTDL

[2] = target: T2, beta-catenin/TCF4 engagement (Homo sapiens, UniProt P35222); assay: Nano-BRET target engagement assay (B-cat-Halo & TCF4-Luc in HEK293 cells); assay type: cell-based
T2 construct: expressed in transfected cells; host or cells: HEK293
T2 sequence (P35222 1-781): T1 sequence (P35222 1-781)

[3] = Solubility in PBS; assay type: physicochemical
Method in brief: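 Read-out is the HPLC peak area of the supernatant from ultracentrifuged PBS solution, scaled against a 50 μM peptide DMSO injection; value reported as [(PBS area)/(DMSO area)]*50 uM.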

[4] = CHI Log D procedure; assay type: physicochemical; details: for CHI Log D: pH 7.4; for chromatographic logD: pH 7.4, CHI Log D
[5] = absolute IC50; read-out: NanoBRET Abs IC50
[6] = fluorescence polarization, read-out: beta-Catenin FP IC50
[7] = fluorescence polarization, beta-catenin, read-out: FP EC50

SMILES | Solubility [3] | CHI Log D [4] | IC50 ([1]; read-out: beta-Catenin FP IC50) | IC50 [2, 5] | Solubility ([3]; Solubility (uM)) | chromatographic logD [4] | IC50 [1, 6] | IC50 ([1]; read-out: FP EC50) | IC50 [1, 7] | IC50 ([2]; read-out: NanoBRET Abs IC50) | inhibition at 10 µM ([2]; HEK293, 10 uM; read-out: NanoBRET % inh @ 10 uM) | IC50 ([1]; read-out: FP EC50, fluorescence polarization, beta-catenin) | IC50 ([2]; read-out: NanoBRET Abs IC50; absolute IC50)
C[C@@H]1NC(=O)[C@H](C)NC(=O)[C@H](CC(=O)O)NC(=O)[C@H](CC(=O)O)NC(=O)C2(CCCC=CCCCCCC[C@@](C)(C(=O)N[C@@H](Cc3ccsc3)C(=O)N[C@@H](Cc3csc4ccccc34)C(=O)N[C@@H](CCC(N)=O)C(N)=O)NC(=O)[C@H](CC(N)=O)NC(=O)[C@H](Cc3ccccc3)NC1=O)CCCC=CC[C@]1(CCCN1C(=O)CN=[N+]=[N-])C(=O)N[C@@H](CC(=O)O)C(=O)N[C@@H](CC(C)(C)C)C(=O)N2 (stereo partly drawn) [I-1053, AzAc-PL3-Asp-Npg-B5-Asp-Asp-Ala-Ala-Phe-Asn-S8-3Thi-BztA-Gln-NH2] | 48 µM (≈ 92 µg/mL) | 2.381 |  |  |  |  |  |  |  |  |  | 0.011 µM | > 20 µM
CC(=O)N1CCC[C@]12CC=CCCCC1(CCCC=CCCCCCC[C@@](C)(C(=O)N[C@@H](Cc3ccccc3)C(=O)N[C@@H](Cc3csc4ccccc34)C(=O)N[C@@H](CCC(N)=O)C(=O)N[C@@H](C)C(N)=O)NC(=O)[C@H](CC(N)=O)NC(=O)[C@H](Cc3ccccc3)NC(=O)[C@H](C)NC(=O)[C@H](C)NC(=O)[C@H](CCC(=O)O)NC(=O)[C@H](CC(=O)O)NC1=O)NC(=O)[C@H](CC(C)C)NC(=O)[C@H](CC(=O)O)NC2=O (stereo partly drawn) [I-730, Ac-PL3-Asp-Leu-B5-Asp-Glu-Ala-Ala-Phe-Asn-S8-Phe-BztA-Gln-Ala-NH2] | 44 µM (≈ 85.4 µg/mL) | 2.377 |  | 11.2 µM |  |  | 0.035 µM | 0.035 µM |  |  |  |  | 
CC(=O)N1CCC[C@]12CC=CCCCC1(CCCC=CCCCCCC[C@@](C)(C(=O)N[C@@H](Cc3ccccc3Cl)C(=O)N[C@@H](Cc3csc4ccccc34)C(=O)N[C@@H](CCC(N)=O)C(N)=O)NC(=O)[C@H]([C@@H](C)O)NC(=O)[C@H](Cc3ccccc3)NC(=O)[C@H](C)NC(=O)[C@H](C)NC(=O)[C@H](CCC(=O)O)NC(=O)[C@H](CC(=O)O)NC1=O)NC(=O)[C@H](CC(C)(C)C)NC(=O)[C@H](CC(=O)O)NC2=O (stereo partly drawn) [I-1088, Ac-PL3-Asp-Npg-B5-Asp-Glu-Ala-Ala-Phe-Thr-S8-2ClF-BztA-Gln-NH2] | 44 µM (≈ 83.8 µg/mL) | 2.8 | 0.022 µM |  |  |  |  |  | 0.022 µM | 6.3 µM |  |  | 
CC(=O)N1CCC[C@]12CC=CCCCC1(CCCC=CCCCCCC[C@@](C)(C(=O)N[C@@H](Cc3ccccc3)C(=O)N[C@@H](Cc3csc4ccccc34)C(=O)N[C@@H](CCC(N)=O)C(N)=O)NC(=O)[C@H](CCC(N)=O)NC(=O)[C@H](Cc3ccccc3)NC(=O)[C@H](C)NC(=O)[C@H](C)NC(=O)[C@H](CCC(=O)O)NC(=O)[C@H](CC(=O)O)NC1=O)NC(=O)[C@H](CCC(C)C)NC(=O)[C@H](CC(=O)O)NC2=O (stereo partly drawn) [I-545, Ac-PL3-Asp-hLeu-B5-Asp-Glu-Ala-Ala-Phe-Gln-S8-Phe-BztA-Gln-NH2] |  |  |  | 3.5 µM | 46 µM (≈ 87.3 µg/mL) | 2.57 | 0.021 µM |  |  |  |  |  | 

Second part, led by results:

Solubility [3] | CHI Log D [4] | IC50 ([1]; read-out: beta-Catenin FP IC50) | IC50 [2, 5] | Solubility ([3]; Solubility (uM)) | chromatographic logD [4] | IC50 [1, 6] | IC50 ([1]; read-out: FP EC50) | IC50 [1, 7] | IC50 ([2]; read-out: NanoBRET Abs IC50) | inhibition at 10 µM ([2]; HEK293, 10 uM; read-out: NanoBRET % inh @ 10 uM) | SMILES | IC50 ([1]; read-out: FP EC50, fluorescence polarization, beta-catenin) | IC50 ([2]; read-out: NanoBRET Abs IC50; absolute IC50)
 |  | 0.005 µM | 11.5 µM | 44 µM (≈ 84.4 µg/mL) | 2.05 |  |  |  |  |  | CC(=O)N1CCC[C@]12CC=CCCCC1(CCCC=CCCCOC(=O)N3CC[C@@](C(=O)N[C@@H](Cc4ccccc4F)C(=O)N[C@@H](Cc4csc5ccccc45)C(=O)N[C@@H](CCC(N)=O)C(N)=O)(C3)NC(=O)[C@H]([C@@H](C)O)NC(=O)[C@H](Cc3ccccc3)NC(=O)[C@H](C)NC(=O)[C@H](C)NC(=O)[C@H](CC(=O)O)NC(=O)[C@H](CC(=O)O)NC1=O)NC(=O)[C@H](CC(C)(C)C)NC(=O)[C@H](CC(=O)O)NC2=O (stereo partly drawn) [I-1021, Ac-PL3-Asp-Npg-B5-Asp-Asp-Ala-Ala-Phe-Thr-PyrS2-2FF-BztA-Gln-NH2] |  | 
50 µM (≈ 99.5 µg/mL) | 2.109 | 0.011 µM |  |  |  |  |  | 0.011 µM | 37.6 µM | 27.6% | CC(=O)N1CCC[C@]12CC=CCCCC1(CCCC=CCCCCOC(=O)N3CC[C@@](C(=O)N[C@@H](Cc4ccsc4)C(=O)N[C@@H](Cc4csc5ccccc45)C(=O)N[C@@H](CC(N)=O)C(=O)N[C@H](C)C(N)=O)(C3)NC(=O)[C@H](CC(N)=O)NC(=O)[C@H](Cc3ccccc3)NC(=O)[C@H](C)NC(=O)[C@H](C)NC(=O)[C@H](CC(=O)O)NC(=O)[C@H](CC(=O)O)NC1=O)NC(=O)[C@H](CC(C)(C)C)NC(=O)[C@H](CC(=O)O)NC2=O (stereo partly drawn) [I-835, Ac-PL3-Asp-Npg-B5-Asp-Asp-Ala-Ala-Phe-Asn-PyrS3-3Thi-BztA-Asn-dAla-NH2] |  | 
